Data taken from ChEMBL document CHEMBL5316341, “The Development and Design Strategy of Leucine-Rich Repeat Kinase 2 Inhibitors: Promising Therapeutic Agents for Parkinson's Disease” (J Med Chem, 2023).
pEC50, pIC50: −log10 of the molar value. Blank lines part the entries; values can stand above or below the compound they belong to.

What was measured:
[1] = test system: von Hippel-Lindau disease tumor suppressor/Leucine-rich repeat serine/threonine-protein kinase 2 (Mus musculus), Q5S006+P40338 [R1441C]; assay: PROTAC activity at VHL/LRRK2 R1441C mutant in mouse bone marrow derived macrophages assessed as induction of LRRK2 degradation by measuring maximal efficacy relative to control; type: cell-based; conditions: BMDM
[2] = target: T1, von Hippel-Lindau disease tumor suppressor/Leucine-rich repeat serine/threonine-protein kinase 2 (Mus musculus, UniProt P40338+Q5S006, R1441C); assay: PROTAC activity at VHL/LRRK2 R1441C mutant in mouse embryonic fibroblast cells assessed as induction of LRRK2 degradation; type: cell-based, MEF
[3] = test system: von Hippel-Lindau disease tumor suppressor/Leucine-rich repeat serine/threonine-protein kinase 2 (Mus musculus), Q5S006+P40338 [R1441C]; assay: PROTAC activity at VHL/LRRK2 R1441C mutant in mouse PBMC cells assessed as induction of LRRK2 degradation by measuring half-life; type: cell-based
[4] = target: T1, von Hippel-Lindau disease tumor suppressor/Leucine-rich repeat serine/threonine-protein kinase 2; assay: PROTAC activity at VHL/LRRK2 R1441C mutant in mouse bone marrow derived macrophages assessed as induction of LRRK2 degradation; type: cell-based, BMDM
[5] = test system: von Hippel-Lindau disease tumor suppressor/Leucine-rich repeat serine/threonine-protein kinase 2 (Mus musculus), Q5S006+P40338 [R1441C]; assay: PROTAC activity at VHL/LRRK2 R1441C mutant in mouse embryonic fibroblast cells assessed as induction of LRRK2 degradation by measuring half-life; type: cell-based; conditions: MEF
[6] = Oral bioavailability in mouse; type: ADME, organism-based; conditions: in vivo
[7] = test system: von Hippel-Lindau disease tumor suppressor/Leucine-rich repeat serine/threonine-protein kinase 2 (Mus musculus), Q5S006+P40338 [R1441C]; assay: PROTAC activity at VHL/LRRK2 R1441C mutant in mouse PBMC cells assessed as induction of LRRK2 degradation by measuring maximal efficacy relative to control; type: cell-based
[8] = test system: von Hippel-Lindau disease tumor suppressor/Leucine-rich repeat serine/threonine-protein kinase 2 (Mus musculus), Q5S006+P40338 [R1441C]; assay: PROTAC activity at VHL/LRRK2 R1441C mutant in mouse embryonic fibroblast cells assessed as induction of LRRK2 degradation by measuring maximal efficacy relative to control; type: cell-based; conditions: MEF
[9] = target: T1, von Hippel-Lindau disease tumor suppressor/Leucine-rich repeat serine/threonine-protein kinase 2; assay: PROTAC activity at VHL/LRRK2 R1441C mutant in mouse PBMC cells assessed as induction of LRRK2 degradation; type: cell-based
[10] = test system: von Hippel-Lindau disease tumor suppressor/Leucine-rich repeat serine/threonine-protein kinase 2 (Mus musculus), Q5S006+P40338 [R1441C]; assay: PROTAC activity at VHL/LRRK2 R1441C mutant in mouse bone marrow derived macrophages assessed as induction of LRRK2 degradation by measuring half-life; type: cell-based; conditions: BMDM
[11] = target: Leucine-rich repeat serine/threonine-protein kinase 2 (Homo sapiens, UniProt Q5S007, G2019S); assay: Inhibition of LRRK2 G2019S mutant (unknown origin) by adapta assay
[12] = target: Leucine-rich repeat serine/threonine-protein kinase 2 (Homo sapiens, UniProt Q5S007); assay: Inhibition of wild-type LRRK2 (unknown origin) by adapta assay
[13] = target: T2, Protein cereblon/Leucine-rich repeat serine/threonine-protein kinase 2 (Homo sapiens, UniProt Q5S007+Q96SW2); assay: PROTAC activity at CRBN/wild type HiBit tagged-LRRK2 in HEK293 cells assessed as LRRK2 degradation by measuring maximum degradation by Nano-Glo dual-luciferase reporter assay relative to control; type: cell-based
[14] = target: T2, Protein cereblon/Leucine-rich repeat serine/threonine-protein kinase 2; assay: PROTAC activity at CRBN/wild type HiBit tagged-LRRK in HEK293 cells assessed as LRRK2 degradation by Nano-Glo dual-luciferase reporter assay; type: cell-based
[15] = target: Protein cereblon/Leucine-rich repeat serine/threonine-protein kinase 2 (Homo sapiens, UniProt Q5S007+Q96SW2, G2019S); assay: PROTAC activity at CRBN/HiBit tagged-LRRK2 G2019S mutant in HEK293 cells assessed as LRRK2 degradation by Nano-Glo dual-luciferase reporter assay; type: cell-based
[16] = test system: Protein cereblon/Leucine-rich repeat serine/threonine-protein kinase 2 (Homo sapiens), Q5S007+Q96SW2 [G2019S]; assay: PROTAC activity at CRBN/LRRK2 G2019S mutant in HEK293 cells assessed as LRRK2 degradation by measuring maximum degradation by Nano-Glo dual-luciferase reporter assay relative to control; type: cell-based

T1 sequence (P40338 whole entry, stated change not applied): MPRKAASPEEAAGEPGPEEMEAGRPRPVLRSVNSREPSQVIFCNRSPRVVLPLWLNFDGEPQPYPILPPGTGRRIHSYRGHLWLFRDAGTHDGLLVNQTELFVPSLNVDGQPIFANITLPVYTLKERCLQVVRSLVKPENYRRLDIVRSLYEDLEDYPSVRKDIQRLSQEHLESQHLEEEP
T1 sequence (Q5S006 whole entry R1441C, stated change not applied): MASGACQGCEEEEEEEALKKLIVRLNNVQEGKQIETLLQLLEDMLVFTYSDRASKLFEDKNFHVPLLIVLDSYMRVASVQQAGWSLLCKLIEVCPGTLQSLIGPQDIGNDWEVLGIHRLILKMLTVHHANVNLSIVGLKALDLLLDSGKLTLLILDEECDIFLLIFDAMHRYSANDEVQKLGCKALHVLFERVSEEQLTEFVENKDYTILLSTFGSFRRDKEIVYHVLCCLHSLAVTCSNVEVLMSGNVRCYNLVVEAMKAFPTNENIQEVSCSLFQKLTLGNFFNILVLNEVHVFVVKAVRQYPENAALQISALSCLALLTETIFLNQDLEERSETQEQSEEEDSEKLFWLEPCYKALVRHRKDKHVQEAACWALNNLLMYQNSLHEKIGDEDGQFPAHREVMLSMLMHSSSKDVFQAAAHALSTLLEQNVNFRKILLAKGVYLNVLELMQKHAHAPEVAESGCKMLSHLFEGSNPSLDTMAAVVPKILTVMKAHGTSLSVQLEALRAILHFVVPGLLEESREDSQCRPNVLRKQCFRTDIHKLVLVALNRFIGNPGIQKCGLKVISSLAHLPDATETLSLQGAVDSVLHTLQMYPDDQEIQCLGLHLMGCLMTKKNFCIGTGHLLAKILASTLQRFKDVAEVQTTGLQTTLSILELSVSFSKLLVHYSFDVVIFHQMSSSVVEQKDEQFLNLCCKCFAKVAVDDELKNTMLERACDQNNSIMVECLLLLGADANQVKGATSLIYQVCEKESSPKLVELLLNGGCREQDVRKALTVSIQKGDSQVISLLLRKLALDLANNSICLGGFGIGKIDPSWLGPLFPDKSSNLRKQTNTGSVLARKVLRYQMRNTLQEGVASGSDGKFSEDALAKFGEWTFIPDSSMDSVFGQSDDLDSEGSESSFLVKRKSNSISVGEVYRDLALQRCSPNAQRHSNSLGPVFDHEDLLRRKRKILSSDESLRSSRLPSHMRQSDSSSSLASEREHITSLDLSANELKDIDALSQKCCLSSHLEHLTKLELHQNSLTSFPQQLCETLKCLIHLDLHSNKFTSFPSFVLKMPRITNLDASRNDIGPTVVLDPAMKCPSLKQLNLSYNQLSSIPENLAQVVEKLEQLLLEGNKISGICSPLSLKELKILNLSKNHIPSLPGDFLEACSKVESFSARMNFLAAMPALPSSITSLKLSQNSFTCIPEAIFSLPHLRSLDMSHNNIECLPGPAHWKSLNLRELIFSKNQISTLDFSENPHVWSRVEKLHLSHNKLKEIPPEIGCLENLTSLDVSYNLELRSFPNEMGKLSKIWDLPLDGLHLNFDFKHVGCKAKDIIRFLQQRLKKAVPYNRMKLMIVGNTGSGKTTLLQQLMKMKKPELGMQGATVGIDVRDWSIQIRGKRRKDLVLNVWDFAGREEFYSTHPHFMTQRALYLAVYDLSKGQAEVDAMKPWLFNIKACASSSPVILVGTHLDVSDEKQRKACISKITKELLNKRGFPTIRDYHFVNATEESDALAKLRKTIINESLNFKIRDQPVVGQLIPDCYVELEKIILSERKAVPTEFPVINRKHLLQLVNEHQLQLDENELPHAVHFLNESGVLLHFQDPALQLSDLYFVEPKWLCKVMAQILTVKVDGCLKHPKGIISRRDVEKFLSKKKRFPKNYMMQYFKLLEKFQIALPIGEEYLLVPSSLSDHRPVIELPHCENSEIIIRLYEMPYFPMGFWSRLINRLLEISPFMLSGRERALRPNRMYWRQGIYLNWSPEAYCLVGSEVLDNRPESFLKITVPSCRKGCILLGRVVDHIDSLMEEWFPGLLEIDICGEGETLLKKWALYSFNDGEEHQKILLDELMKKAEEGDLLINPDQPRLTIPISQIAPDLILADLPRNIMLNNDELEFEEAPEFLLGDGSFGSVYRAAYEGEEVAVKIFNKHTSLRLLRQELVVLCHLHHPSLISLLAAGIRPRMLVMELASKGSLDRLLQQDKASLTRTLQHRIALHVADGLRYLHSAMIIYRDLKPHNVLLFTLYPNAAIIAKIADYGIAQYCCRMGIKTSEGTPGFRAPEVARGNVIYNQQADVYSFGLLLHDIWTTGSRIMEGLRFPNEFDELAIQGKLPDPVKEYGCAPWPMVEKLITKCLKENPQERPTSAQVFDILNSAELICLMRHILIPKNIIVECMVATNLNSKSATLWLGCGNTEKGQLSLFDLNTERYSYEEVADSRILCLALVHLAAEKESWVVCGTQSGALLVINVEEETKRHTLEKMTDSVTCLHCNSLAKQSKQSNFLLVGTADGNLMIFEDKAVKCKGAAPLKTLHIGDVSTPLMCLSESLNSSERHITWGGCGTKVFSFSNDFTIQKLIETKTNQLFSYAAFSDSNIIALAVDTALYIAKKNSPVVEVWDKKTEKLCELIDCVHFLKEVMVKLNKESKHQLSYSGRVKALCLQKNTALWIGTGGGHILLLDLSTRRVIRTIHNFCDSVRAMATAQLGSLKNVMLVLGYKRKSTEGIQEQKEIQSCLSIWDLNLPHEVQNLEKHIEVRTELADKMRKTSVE

SMILES: CNc1nc(Nc2ccc(C(=O)N3CCN(C[C@H]4CC[C@H](CSC(C)(C)[C@H](NC(=O)C5(F)CC5)C(=O)N5C[C@@H](O)C[C@@H]5C(=O)NCc5ccc(-c6scnc6C)cc5)CC4)CC3)cc2OC)ncc1Cl
Emax [1]: 82%
pEC50 [2]: 7.82
T1/2 [3]: 36 min
pEC50 [4]: 7.82
T1/2 [5]: 36 min
bioavailability [6]: 15%
Emax [7]: 82%
Emax [8]: 82%
pEC50 [9]: 7.82
T1/2 [10]: 36 min

pIC50 [11]: 9.01
pIC50 [12]: 8.84
SMILES: CC1(Oc2ccc3[nH]nc(-c4cc(N5CCN(CCOCCOCCOCCOc6ccc7c(c6)C(=O)N(C6CCC(=O)NC6=O)C7=O)CC5)ncn4)c3c2)CC1 (stereo unspecified)

SMILES: C[C@H]1CN(c2cc(-c3n[nH]c4ccc(OC5(C)CC5)cc34)ccn2)CCN1CCOCCOCCOCCOc1ccc2c(c1)C(=O)N(C1CCC(=O)NC1=O)C2=O (stereo partly specified)
Emax [13]: > 70%
pEC50 [14]: > 8.00
pEC50 [15]: > 8.00
Emax [16]: > 70%
